From US20260258083A1, “T Cell Engager Masking Molecules” (AMGEN INC., priority 2023, published 2026)
Where a SMILES comes first, the peptide text is derived from it. Where no end group is shown, it is not given here. Side-chain parts run from the residue outwards. [ ]: non-standard residue; d: D form. maleimide = maleimide-thiosuccinimide linker; pGlu = O=C1CC[C@@H](C(=O)O)N1; P(Dap) = not defined here; PEG = not defined here

What was measured:
[1] = Mouse pharmacokinetic study, IV (Example 2); settings: BL/6, mouse, plasma, iv, 1 mg/kg
Experimental: Example 2: Mouse Pharmacokinetic Study to Evaluate In Vivo PK
The 4-arm 20 kDa PepPOL conjugate was dosed by IV administration to BL/6 mice at 0.82 or 8.2 mg/kg dose levels. […] The PK profiles for each peptide were evaluated by quantifying plasma concentrations of total intact peptide material over time (see methods).

[2] = test system: FLT3×CD3 TCE (SEQ ID NO: 93); assay: Association kinetics by KinExA (Table 5); type: binding; settings: for koff: KinExA, FLT3×CD3 TCE; for fold-koff / fold-kon: relative to the parent CD3ε epitope peptide
FLT3×CD3 TCE (SEQ ID NO: 93), sequence (as listed by the source): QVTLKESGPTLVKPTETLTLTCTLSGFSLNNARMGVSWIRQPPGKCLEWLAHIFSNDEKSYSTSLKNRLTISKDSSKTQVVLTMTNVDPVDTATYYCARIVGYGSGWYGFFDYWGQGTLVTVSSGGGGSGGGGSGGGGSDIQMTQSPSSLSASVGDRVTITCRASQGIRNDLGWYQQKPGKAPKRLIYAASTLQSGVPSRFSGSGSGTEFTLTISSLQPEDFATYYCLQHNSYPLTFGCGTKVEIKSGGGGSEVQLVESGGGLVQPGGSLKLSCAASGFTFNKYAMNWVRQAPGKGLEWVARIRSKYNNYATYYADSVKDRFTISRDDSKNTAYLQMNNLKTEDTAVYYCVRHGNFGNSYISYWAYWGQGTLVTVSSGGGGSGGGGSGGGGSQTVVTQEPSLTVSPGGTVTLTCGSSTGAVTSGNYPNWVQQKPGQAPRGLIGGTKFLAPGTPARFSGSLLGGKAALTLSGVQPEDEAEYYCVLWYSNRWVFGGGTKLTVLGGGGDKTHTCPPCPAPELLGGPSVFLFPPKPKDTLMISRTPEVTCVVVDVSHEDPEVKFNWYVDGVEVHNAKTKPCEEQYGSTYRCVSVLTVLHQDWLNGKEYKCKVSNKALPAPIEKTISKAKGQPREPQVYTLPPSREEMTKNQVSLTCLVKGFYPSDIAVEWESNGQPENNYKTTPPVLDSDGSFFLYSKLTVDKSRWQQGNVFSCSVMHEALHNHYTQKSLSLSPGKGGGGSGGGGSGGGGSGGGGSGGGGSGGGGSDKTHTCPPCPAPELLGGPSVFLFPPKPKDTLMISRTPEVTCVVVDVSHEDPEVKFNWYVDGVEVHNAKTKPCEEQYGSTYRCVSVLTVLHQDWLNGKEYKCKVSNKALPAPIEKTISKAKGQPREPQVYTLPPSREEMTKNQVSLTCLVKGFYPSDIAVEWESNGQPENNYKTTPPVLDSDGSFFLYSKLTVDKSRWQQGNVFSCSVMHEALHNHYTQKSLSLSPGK
Experimental: (§1) • 1. Preparation of NHS-activated sepharose fast-flow beads: • 2. Fast flow sepharose suspension in 100% IPA, washed twice with milliQ H20, mild centrifugation to pool beads in between wash steps. • 3. Equilibrated in 0.15 M NaBO3, pH=8.5 buffer • 4. Added 80 mM PDEA to activate the resin for thiol exchange, 10 mins, r.t. • 5. Equilibrated resin with Hepes Buffered Saline-P (0.01 M HEPES pH 7.4, 0.15 M NaCl, 0.005% v/v Surfactant P2), pH 7.4 binding buffer • 6. Added 30 μg/mL of binding peptide, […] (SEQ ID NO; 297) or pGlu-[…] (SEQ ID NO: 300), reaction for 1 hr to functionalize resin. • 7. Quench with 10 mM L-Cys for 1 hour. • 8. Constant Binding Partner was FLT3×CD3 TCE (SEQ ID NO: 93), MW 105720, 3.2 mg/mL 31.21 uM was diluted to 333 pM and the pGlu-[…] peptide or pGlu-[…]-PEG (Pep-PEG v2) were titrated from 1 uM or 400 nM down to 2.3 pM concentrations relative to effective peptide molarity.
Association Kinetics by KinExA

[3] = target: FLT3×CD3 TCE (SEQ ID NO: 93); assay: Equilibrium binding affinity measurement by KinExA (Table 5); settings: for Kd: KinExA, FLT3×CD3 TCE as constant binding partner; for fold-Kd: affinity gain relative to the parent CD3ε epitope peptide
Experimental: Equilibrium Binding Affinity Measurement by KinExA
as §1

[4] = test system: anti-CD3ε paratope of a CD3ε binding domain of a TCE; assay: Affinity class of the binding peptide of the masking molecule
Description: The exact value may vary with the respective TCE. However, the […]

[5] = test system: CDH3×MSLN dual targeting TCE with two CD3e binders (SEQ ID NO 255); assay: TDCC assay, inhibition of cytotoxicity (Example 15); type: cell-based; settings: same peptide concentration; PBMC E:T 10:1, 48 or 72 hours
CDH3×MSLN dual targeting TCE with two CD3e binders (SEQ ID NO 255), sequence (as listed by the source): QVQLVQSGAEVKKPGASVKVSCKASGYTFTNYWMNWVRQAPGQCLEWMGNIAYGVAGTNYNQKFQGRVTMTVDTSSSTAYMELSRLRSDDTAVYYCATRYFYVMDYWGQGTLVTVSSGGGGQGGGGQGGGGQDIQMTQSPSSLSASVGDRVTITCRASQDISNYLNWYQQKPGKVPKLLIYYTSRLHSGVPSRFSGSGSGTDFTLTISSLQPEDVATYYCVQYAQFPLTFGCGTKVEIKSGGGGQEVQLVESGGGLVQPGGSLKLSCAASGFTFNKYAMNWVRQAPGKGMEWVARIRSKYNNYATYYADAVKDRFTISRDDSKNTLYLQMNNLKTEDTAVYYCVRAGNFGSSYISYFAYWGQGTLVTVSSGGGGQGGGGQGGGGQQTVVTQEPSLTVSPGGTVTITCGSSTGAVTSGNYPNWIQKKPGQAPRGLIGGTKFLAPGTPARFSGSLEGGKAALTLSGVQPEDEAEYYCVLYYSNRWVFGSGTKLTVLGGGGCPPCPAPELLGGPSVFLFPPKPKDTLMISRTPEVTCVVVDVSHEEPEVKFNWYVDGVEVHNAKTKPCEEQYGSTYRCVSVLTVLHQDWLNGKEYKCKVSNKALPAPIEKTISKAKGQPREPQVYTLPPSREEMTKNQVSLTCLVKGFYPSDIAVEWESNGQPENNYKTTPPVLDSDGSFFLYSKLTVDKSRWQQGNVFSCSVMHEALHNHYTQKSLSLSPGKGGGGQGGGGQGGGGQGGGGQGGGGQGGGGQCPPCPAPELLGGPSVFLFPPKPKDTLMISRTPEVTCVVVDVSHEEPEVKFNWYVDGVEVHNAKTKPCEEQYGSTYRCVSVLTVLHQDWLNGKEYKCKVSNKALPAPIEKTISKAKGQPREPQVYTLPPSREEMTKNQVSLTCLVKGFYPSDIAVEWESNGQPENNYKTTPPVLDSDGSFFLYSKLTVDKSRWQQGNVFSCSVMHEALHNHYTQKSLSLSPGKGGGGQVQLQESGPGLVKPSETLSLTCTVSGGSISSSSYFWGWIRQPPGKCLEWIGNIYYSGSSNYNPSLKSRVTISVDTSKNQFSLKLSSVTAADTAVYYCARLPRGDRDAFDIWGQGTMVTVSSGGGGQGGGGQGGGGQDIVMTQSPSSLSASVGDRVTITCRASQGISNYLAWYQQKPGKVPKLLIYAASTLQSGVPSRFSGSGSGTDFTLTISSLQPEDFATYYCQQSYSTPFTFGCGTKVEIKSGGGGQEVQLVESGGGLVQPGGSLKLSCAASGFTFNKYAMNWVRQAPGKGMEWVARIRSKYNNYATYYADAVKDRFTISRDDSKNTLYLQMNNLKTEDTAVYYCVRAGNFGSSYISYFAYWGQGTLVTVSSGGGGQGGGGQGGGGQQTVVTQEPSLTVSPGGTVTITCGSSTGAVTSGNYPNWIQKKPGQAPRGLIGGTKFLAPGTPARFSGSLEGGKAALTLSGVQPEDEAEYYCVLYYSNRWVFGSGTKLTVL
Experimental: Example 15: TCE Masking Molecule Inhibition of Cytotoxicity and Cytokine Release of Representative CDH3×MSLN Dual Targeting TCE with Two CD3e Binders (SEQ ID NO 255)
In vitro potency of CD3e pepPEG was indirectly assessed by measuring in vitro activity of T cell engager (TCE) using T cell dependent cellular cytotoxicity (TDCC) assay. Either 100 pM or 300 pM of TCE was mixed with increasing concentrations of CD3e pepPEG before the mixture is treated to cells. Peripheral blood mononuclear cells (PBMCs) as effector cells were co-cultured with tumor target cells at an effector cell-to-target cell ratio of 10:1 in the presence of mixture of TCE and CD3e pepPEG for 48 hours or 72 hours at 37° C. Cytotoxicity of TCE was assessed by Steady-Glo (Promega) for luciferase-tagged target cells and CellTiter-Glo (Promega) for non-luciferase-tagged target cells after plates were washed to eliminate T cells. Specific cytotoxicity curves and EC50 values were derived using Prism 7.04 (GraphPad). Cytokine production was assessed in supernatants from TDCC assays using electro-chemiluminescence assays (MesoScale Discovery).

[6] = test system: STEAP1×CD3e heterodimeric TCE; assay: T cell dependent cellular cytotoxicity (TDCC) assay, inhibition of TCE cytotoxicity; type: cell-based; settings: STEAP1×CD3, CLDN6×CD3 and DLL3×CD3 TCE; PBMC E:T 10:1, 48 hours
STEAP1×CD3e heterodimeric TCE, sequence (as listed by the source): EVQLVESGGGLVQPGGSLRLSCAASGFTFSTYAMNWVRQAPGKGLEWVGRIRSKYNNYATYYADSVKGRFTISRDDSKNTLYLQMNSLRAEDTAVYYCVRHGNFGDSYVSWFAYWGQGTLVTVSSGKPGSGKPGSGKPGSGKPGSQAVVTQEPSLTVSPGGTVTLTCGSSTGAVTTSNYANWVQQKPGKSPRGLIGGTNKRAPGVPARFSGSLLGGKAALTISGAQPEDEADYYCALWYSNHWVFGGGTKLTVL
Experimental: Example 12: In Vitro Cytotoxicity and Cytokine Release Inhibition by Binding Peptides
In vitro potency of CD3e pepPEG was indirectly assessed by measuring in vitro activity of T cell engager (TCE) using T cell dependent cellular cytotoxicity (TDCC) assay. […] Cytokine production was assessed in supernatants from TDCC assays using electro-chemiluminescence assays (MesoScale Discovery).

[7] = test system: DLL3xCD3 TCE SEQ ID NO 104; assay: SPR assay of immobilized peptides binding with TCE; settings: immobilized peptide, Kinetic 1:1 Binding
DLL3xCD3 TCE SEQ ID NO 104, sequence (as listed by the source): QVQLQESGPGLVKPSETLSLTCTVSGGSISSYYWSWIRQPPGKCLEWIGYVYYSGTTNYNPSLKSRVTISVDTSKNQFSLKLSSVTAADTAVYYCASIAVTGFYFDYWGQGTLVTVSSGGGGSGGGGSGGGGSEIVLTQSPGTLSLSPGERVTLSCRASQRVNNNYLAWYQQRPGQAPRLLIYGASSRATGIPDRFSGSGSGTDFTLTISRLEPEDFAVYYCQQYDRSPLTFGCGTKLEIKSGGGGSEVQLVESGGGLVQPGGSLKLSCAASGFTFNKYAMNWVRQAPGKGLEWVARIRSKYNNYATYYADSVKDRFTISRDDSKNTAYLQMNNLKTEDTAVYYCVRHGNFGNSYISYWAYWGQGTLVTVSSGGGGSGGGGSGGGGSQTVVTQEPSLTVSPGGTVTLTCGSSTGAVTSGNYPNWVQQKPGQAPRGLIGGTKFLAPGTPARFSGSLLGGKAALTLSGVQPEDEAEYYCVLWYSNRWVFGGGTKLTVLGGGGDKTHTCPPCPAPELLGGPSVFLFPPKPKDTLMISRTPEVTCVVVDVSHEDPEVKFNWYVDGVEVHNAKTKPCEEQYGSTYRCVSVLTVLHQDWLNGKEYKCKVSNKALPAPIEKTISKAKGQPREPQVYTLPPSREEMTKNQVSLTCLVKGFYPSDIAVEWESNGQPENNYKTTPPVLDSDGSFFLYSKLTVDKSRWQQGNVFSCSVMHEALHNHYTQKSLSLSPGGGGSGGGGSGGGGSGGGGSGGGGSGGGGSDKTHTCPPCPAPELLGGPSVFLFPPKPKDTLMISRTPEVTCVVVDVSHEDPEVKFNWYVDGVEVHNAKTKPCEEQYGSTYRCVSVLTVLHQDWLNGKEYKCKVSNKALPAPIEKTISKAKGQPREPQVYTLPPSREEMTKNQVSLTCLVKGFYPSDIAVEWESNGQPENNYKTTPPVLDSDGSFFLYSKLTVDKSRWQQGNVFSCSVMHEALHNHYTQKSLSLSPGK
Experimental: (§2) Example 14: SPR Assay of Immobilized Peptides Binding with TCE
(§3) A cytiva CM5 chip was first functionalized with PDEA (2-(2pyridinyldithio)ethaneamine) under standard ((1-ethyl-3-(3-dimethylaminopropyl)carbodiimide)/(N-hydroxysuccinimide) EDC/NHS coupling conditions where the PDEA is dissolved to 20 mM and 1 M NaCl in 0.1 M sodium acetate pH 4.3. Binding peptides were dissolved to 50- or 100-ug/mL respectively in PBST, pH 6.5, and coupling times were optimized to yield the desired surface density.

[8] = test system: Steap 1xCD3 TCE SEQ ID NO 373 + 374 + 375; assay: SPR assay of immobilized peptides binding with TCE; settings: immobilized peptide, Kinetic 1:1 Binding
Experimental: as §2, §3

[9] = test system: FLT3xCD3 TCE SEQ ID NO 93; assay: SPR assay of immobilized peptides binding with TCE; settings: immobilized peptide, Kinetic 1:1 Binding
Experimental: as §2, §3

[10] = test system: CDH3-CD3-MSLN-CD3 TCE (SEQ ID NO 255); assay: SPR assay of immobilized peptides binding with TCE; settings: bivalent analyte model
Experimental: as §2, §3

[11] = test system: CLDN6xCD3 TCE SEQ ID NO 340; assay: SPR assay of immobilized peptides binding with TCE; settings: immobilized peptide, Kinetic 1:1 Binding
CLDN6xCD3 TCE SEQ ID NO 340, sequence (as listed by the source): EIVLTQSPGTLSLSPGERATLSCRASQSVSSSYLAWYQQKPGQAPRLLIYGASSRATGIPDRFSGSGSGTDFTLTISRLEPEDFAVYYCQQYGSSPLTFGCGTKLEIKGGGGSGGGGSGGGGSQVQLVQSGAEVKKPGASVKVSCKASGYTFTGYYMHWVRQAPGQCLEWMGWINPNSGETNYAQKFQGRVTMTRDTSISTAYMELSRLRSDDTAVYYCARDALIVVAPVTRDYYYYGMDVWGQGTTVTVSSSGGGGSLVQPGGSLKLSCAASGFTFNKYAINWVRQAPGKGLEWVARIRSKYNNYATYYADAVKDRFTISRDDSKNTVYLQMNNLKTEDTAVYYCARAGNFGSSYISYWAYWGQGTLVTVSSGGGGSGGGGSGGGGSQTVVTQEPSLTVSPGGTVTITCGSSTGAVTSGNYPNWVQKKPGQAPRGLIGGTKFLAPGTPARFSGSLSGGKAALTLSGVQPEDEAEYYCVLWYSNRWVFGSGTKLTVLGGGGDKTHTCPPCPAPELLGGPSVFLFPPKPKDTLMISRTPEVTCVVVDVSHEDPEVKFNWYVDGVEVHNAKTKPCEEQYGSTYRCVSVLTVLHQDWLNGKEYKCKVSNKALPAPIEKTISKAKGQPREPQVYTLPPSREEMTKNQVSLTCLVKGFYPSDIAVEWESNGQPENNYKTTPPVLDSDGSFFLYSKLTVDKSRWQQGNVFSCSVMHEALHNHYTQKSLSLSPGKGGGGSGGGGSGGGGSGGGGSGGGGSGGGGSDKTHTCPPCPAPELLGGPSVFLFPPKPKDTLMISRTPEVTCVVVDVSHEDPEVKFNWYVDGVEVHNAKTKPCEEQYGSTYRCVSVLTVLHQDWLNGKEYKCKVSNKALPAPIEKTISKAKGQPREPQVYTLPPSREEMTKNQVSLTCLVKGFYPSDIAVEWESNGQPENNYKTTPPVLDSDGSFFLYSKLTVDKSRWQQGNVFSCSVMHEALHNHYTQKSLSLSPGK
Experimental: as §2, §3

[12] = masking molecules tested with respect to TCE of SEQ ID NO 255 (Table 20)
[13] = masking molecules of Example 12

CSCC[C@H](NC(=O)CNC(=O)[C@H](CCCCN)NC(=O)CNC(=O)[C@H](CCSC)NC(=O)[C@H](CCC(=O)O)NC(=O)[C@H](CCC(=O)O)NC(=O)[C@H](CC(N)=O)NC(=O)CNC(=O)[C@H](CC(=O)O)NC(=O)[C@@H](N)CCC(N)=O)C(=O)N[C@@H](CCC(=O)O)C(=O)N[C@@H](CCC(=O)O)C(=O)N[C@@H](CC(N)=O)C(=O)NCC(=O)N[C@@H](CC(=O)O)C(=O)N[C@@H](CCC(N)=O)C(=O)O (H-QDGNEEMGKGMEENGDQ-OH)
half-life [1]: 3 to 10 min

CSCC[C@H](NC(=O)CNC(=O)[C@H](CCCCN)NC(=O)CNC(=O)[C@H](CCSC)NC(=O)[C@H](CCC(=O)O)NC(=O)[C@H](CCC(=O)O)NC(=O)[C@H](CC(N)=O)NC(=O)CNC(=O)[C@H](CC(=O)O)NC(=O)[C@@H](N)CCC(N)=O)C(=O)N[C@@H](CCC(=O)O)C(=O)N[C@@H](CCC(=O)O)C(=O)N[C@@H](CC(N)=O)C(=O)NCC(=O)N[C@@H](CC(=O)O)C(=O)N[C@@H](CCC(N)=O)C(=O)N[C@@H](CS)C(=O)O (H-QDGNEEMGKGMEENGDQC-OH; N-terminus and C-terminus assumed)
half-life [1]: 3 to 10 min

(QDGNEEMG)3K
koff [2]: 0.00016 s⁻¹

QDGNEEMG [reference compound]
koff [2]: 0.0248 s⁻¹

QDGNEEMG-K(Nϵ)-GMEENGDQ (chain 1 QDGNEEMGK; also: branched: chains joined through a Lys, chain 2 on Lys Nε, direction not given here)
Kd [3]: 1.03 nM | fold-Kd [3]: 21.65 | koff [2]: 0.00447 s⁻¹ | fold-koff [2]: 0.25 | fold-kon [2]: 5.38

QDGNEEMG-P(Dap)-GMEENGDQ (chain 1 QDGNEEMG-{P(Dap)}; reading uncertain; also: chains linked via Dap residue 'P(Dap)')
Kd [3]: 1.1 nM | fold-Kd [3]: 32.55 | koff [2]: 0.0075 s⁻¹ | fold-koff [2]: 0.30 | fold-kon [2]: 6.36

QDGNEEMGGMEENGDQ
koff [2]: 0.00471 s⁻¹

QDGNEEMGK
koff [2]: 0.0179 s⁻¹

QDGNEEMGKQDGNEEMG
koff [2]: 0.00497 s⁻¹

QDGNEEMGQDGNEEMG
koff [2]: 0.00586 s⁻¹

pE-DGEEELKGC (PEG)-NH2 [79676-1] ([pGlu]DGEEELKGC(PEG)-NH2; not fully specified; printed as pE-DGEEELKGC (PEG)-NH2; reading uncertain; also: PEG type and size not given here)
Affinity [4, 12]: Intermediote | inhibition of cytotoxicity, in vitro potency (FIG. 20) [5]: comparable results among each other

pE-DGEEELKGC (PEG)-NH2 [79677-1] ([pGlu]DGEEELKGC([maleimide-4‑arm PEG 5 kDa])-NH2; also: 4-arm PEG conjugate, number of peptide copies not given here)
Affinity [4, 12]: Intermediate (an affinity of about 10 to 150, preferably 10 to 100 mM is considered of “high” affinity) | inhibition of cytotoxicity, in vitro potency (FIG. 20) [5]: comparable results among each other

pE-DGEEELKGK (PEG)-OH ([pGlu]DGEEELKGK(PEG 20 kDa)-OH; not fully specified) [79921-1]
Affinity [4, 12]: Intermediate (an affinity of about 10 to 150, preferably 10 to 100 mM is considered of “high” affinity)

pE-DGEEELKGK (mPEG)-OH ([pGlu]DGEEELKGK(mPEG)-OH; numbers in words are those of the source; also: Lys side chain linked via thioether to 20 kDa mPEG) [82138-1]
Affinity [4, 12]: Intermediate (an affinity of about 10 to 150, preferably 10 to 100 mM is considered of “high” affinity)

pE-DGNEELKGC (PEG)-NH2 [79674-1] ([pGlu]DGNEELKGC(PEG)-NH2; not fully specified; printed as pE-DGNEELKGC (PEG)-NH2; reading uncertain; also: PEG type and size not given here)
Affinity [4, 13]: High (an affinity indicated as Kd of about 0.05 to about 10 nM, typically 0.1 pM to 10 nM or 500 pM to 5 nM is considered of “high” affinity) | Affinity [4, 12]: High (an affinity indicated as Kd of about 0.05 to about 10 nM, typically 0.1 pM to 10 nM or 500 pM to 5 nM is considered of “high” affinity) | inhibition activity against TCE cytotoxicity (FIG. 15) [6]: highest inhibition activity

pE-DGNEELKGC (PEG)-NH2 [79675-1] ([pGlu]DGNEELKGC-NH2; also: PEG attached, size and site not given here in name)
Affinity [4, 13]: High (an affinity indicated as Kd of about 0.05 to about 10 nM, typically 0.1 pM to 10 nM or 500 pM to 5 nM is considered of “high” affinity) | Affinity [4, 12]: High (an affinity indicated as Kd of about 0.05 to about 10 nM, typically 0.1 pM to 10 nM or 500 pM to 5 nM is considered of “high” affinity) | inhibition activity against TCE cytotoxicity (FIG. 15) [6]: highest inhibition activity

pE-DGNEELKGC (PEG)-OH (N-terminal pyroglutamate, 20K PEG on Cys) [71203-2]
Affinity [4, 13]: High (an affinity indicated as Kd of about 0.05 to about 10 nM, typically 0.1 pM to 10 nM or 500 pM to 5 nM is considered of “high” affinity) | Affinity [4, 12]: High (an affinity indicated as Kd of about 0.05 to about 10 nM, typically 0.1 pM to 10 nM or 500 pM to 5 nM is considered of “high” affinity)

pE-DGNEELKGK (PEG)-OH ([pGlu]DGNEELKGK-OH; not fully specified (residue 10); printed as pE-DGNEELKGK (PEG)-OH) [73135-2]
Affinity [4, 13]: High (an affinity indicated as Kd of about 0.05 to about 10 nM, typically 0.1 pM to 10 nM or 500 pM to 5 nM is considered of “high” affinity) | Affinity [4, 12]: High (an affinity indicated as Kd of about 0.05 to about 10 nM, typically 0.1 pM to 10 nM or 500 pM to 5 nM is considered of “high” affinity)

pE-DGNEELKGK (mPEG)-OH ([pGlu]DGNEELKGK([acetamide‑thioether-mPEG 20 kDa])-OH) [73136-2]
Affinity [4, 13]: High (an affinity indicated as Kd of about 0.05 to about 10 nM, typically 0.1 pM to 10 nM or 500 pM to 5 nM is considered of “high” affinity) | Affinity [4, 12]: High (an affinity indicated as Kd of about 0.05 to about 10 nM, typically 0.1 pM to 10 nM or 500 pM to 5 nM is considered of “high” affinity) | inhibition of cytotoxicity, in vitro potency (FIG. 20) [5]: comparable results among each other

pGlu-DGNEELKGC ([pGlu]DGNEELKGC; also: entry DGNEELKGC marks its position 1 as pyroglutamic acid)
ka [7]: 2.14e+06 M⁻¹ s⁻¹ | kd [7]: 0.00279 s⁻¹ | ka [8]: 2e+06 M⁻¹ s⁻¹ | kd [8]: 0.00514 s⁻¹ | ka [9]: 1.88e+06 M⁻¹ s⁻¹ | kd [9]: 0.0024 s⁻¹ | fast component for the off-rate [10]: 0.0212 s⁻¹ | fast component of the on-rate [10]: 2.42e+06 M⁻¹ s⁻¹ | ka [11]: 2.72e+06 M⁻¹ s⁻¹ | kd [11]: 0.0038 s⁻¹
